# Assay results from article PMC12521730, “Quantitative dual-isotope preclinical SPECT/CT imaging and biodistribution of the mercury-197m/g theranostic pair with [^197m/gHg]HgCl2 and a [^197m/gHg]Hg-tetrathiol complex as a platform for radiopharmaceutical development” (EJNMMI Radiopharmacy and Chemistry, 2025).
# Assay: Ex vivo biodistribution (gamma counter)
# Assay type: in vivo, healthy male C57BL/6 mice
# Settings: Hg-197g, 2 h post administration
# Method: For animal injection, the tracer was prepared at high molar activity. Radiolabeling of H4Tetrathiol (10^–2 M in DMSO; 40 μL for imaging, 20 μL for bioD) (or DMSO, for [^197m/gHg]HgCl2 mice) with [^197m/gHg]HgCl2 (imaging: 26.7 MBq total m + g, 62 μL; bioD: 13.04 MBq total m + g, 31 μL) was performed in a mixture of ammonium acetate buffer (1 M; pH 7; 198 μL for imaging or 149 μL for bioD) and 6 M NaOH (72 μL or 38 μL required to achieve a pH of 7.5 after addition of activity, for imaging or BioD labeling, respectively). The reaction was allowed to stand for 1 h at 37 °C and quantitative (> 99%) non-isolated percentage radiochemical yield (%RCY) was confirmed via the iTLC methods mentioned above. Further, 100 µL of the reaction was diluted with 50 µL of PBS Tween-20 (0.01 M sodium phosphate, 0.15 M NaCl, 0.05% Tween-20) for imaging mice, or 50 µL of the reaction was diluted with 100 µL of PBS Tween-20 for BioD mice. The tracers were prepared immediately before injection to avoid radiolysis and minimize the tracer loss to any surfaces due to its lipophilicity. The injected doses of each isomer, ^197mHg and ^197gHg, were quantified by measuring an aliquot of known volume of each tracer preparation via HPGe gamma spectroscopy and decay corrected for time of injection using the Eqs. (1) and (2).
# The study was conducted in compliance with the guidelines set by the Canadian Council on Animal Care (CCAC) and approved by the Animal Care Committee (ACC) at the University of British Columbia (A20-0132). A total of eight healthy male C57BL/6 mice weighing approximately 30 g for group 1 and 25 g for group 2 were used in the study. The mice were divided into two experimental groups: group 1 (n = 4) received free [^197m/gHg]HgCl2, while group 2 (n = 4) received [^197m/gHg]Hg-Tetrathiol. Within each group, one mouse was allocated for imaging, while the rest were designated for ex vivo biodistribution analysis. For SPECT imaging, the designated mice were anesthetized using isoflurane via a precision vaporizer. […] Once anesthetized, each imaging mouse received an intravenous (IV) injection via the lateral tail vein of 150 μL of [^197m/gHg]HgCl2 (0.492 MBq ^197mHg + 3.171 MBq ^197gHg) or [^197m/gHg]Hg-Tetrathiol (0.899 MBq ^197mHg + 4.230 MBq ^197gHg) in PBS Tween-20 (0.01 M Na Phosphate, 0.15 M NaCl, 0.05% Tween-20).
# Mice received an IV injection of [^197m/gHg]HgCl2 (0.275 MBq ^197mHg + 1.758 MBq ^197gHg, 150 μL) or [^197m/gHg]Hg-Tetrathiol (0.384 MBq ^197mHg + 1.733 MBq ^197gHg, 150 μL) (n = 3 per group) via the lateral tail vein using a Tailveiner restrainer. After the injection, the mice were returned to their experimental cages and allowed unrestricted movement. Biodistribution studies were conducted 2 h after administration. Mice were humanely euthanized with an overdose of isoflurane followed by cardiac puncture to collect blood pool activity. The organs of interest were fully extracted, cleaned of blood without rinsing, weighed, and analysed for radioactivity using a calibrated gamma counter with the 55–93 keV energy window for ^197gHg and the 110–160 keV energy window for ^197mHg (Packard Cobra II, Perkin Elmer, Waltham, MA, USA). The stomach and intestines were carefully cleaned prior to analysis to remove residual contents. For tissues and fluids that could not be fully removed (muscle, blood and bone) activity values were extrapolated based on standardised organ weights for age- and sex-matched mice tables to ensure accurate normalization (Davies and Morris [1993]; Foster et al. [2014]). The stomach and whole intestines were cleaned before analysis. The radioactivity measurements were decay corrected for time of injection using the Eqs. (1) and (2). The results are reported as the percentage of the injected activity per gram of tissue (%IA/g) and percentage of the injected activity per tissue (%IA/organ).
smiles,measurement,value
[Cl][Hg][Cl] [[^197m/gHg]HgCl2],Animal 1 (%IA/Organ): bladder,0.10 %IA/Organ
same,Animal 1 (%IA/Organ): blood,7.19 %IA/Organ
same,Animal 1 (%IA/Organ): bone,4.96 %IA/Organ
same,Animal 1 (%IA/Organ): brain,0.08 %IA/Organ
same,Animal 1 (%IA/Organ): feces,0.04 %IA/Organ
same,Animal 1 (%IA/Organ): heart,0.39 %IA/Organ
same,Animal 1 (%IA/Organ): kidneys,51.84 %IA/Organ
same,Animal 1 (%IA/Organ): large intestine,0.85 %IA/Organ
same,Animal 1 (%IA/Organ): liver,11.53 %IA/Organ
same,Animal 1 (%IA/Organ): lungs,0.87 %IA/Organ
same,Animal 1 (%IA/Organ): muscle,12.34 %IA/Organ
same,Animal 1 (%IA/Organ): pancreas,0.32 %IA/Organ
same,Animal 1 (%IA/Organ): small intestine,0.99 %IA/Organ
same,Animal 1 (%IA/Organ): spleen,0.47 %IA/Organ
same,Animal 1 (%IA/Organ): stomach,0.29 %IA/Organ
same,Animal 1 (%IA/Organ): tail,4.00 %IA/Organ
same,Animal 1 (%IA/Organ): urine,1.57 %IA/Organ
same,Animal 1 (%IA/g) g: bladder,1.28 %IA/g
same,Animal 1 (%IA/g) g: blood,4.25 %IA/g
same,Animal 1 (%IA/g) g: bone,2.26 %IA/g
same,Animal 1 (%IA/g) g: brain,0.19 %IA/g
same,Animal 1 (%IA/g) g: feces,0.96 %IA/g
same,Animal 1 (%IA/g) g: heart,2.62 %IA/g
same,Animal 1 (%IA/g) g: kidneys,110 %IA/g
same,Animal 1 (%IA/g) g: large intestine,3.42 %IA/g
same,Animal 1 (%IA/g) g: lungs,5.68 %IA/g
same,Animal 1 (%IA/g) g: muscle,0.94 %IA/g
same,Animal 1 (%IA/g) g: pancreas,1.76 %IA/g
same,Animal 1 (%IA/g) g: small intestine,4.46 %IA/g
same,Animal 1 (%IA/g) g: spleen,5.78 %IA/g
same,Animal 1 (%IA/g) g: stomach,2.45 %IA/g
same,Animal 1 (%IA/g) g: tail,7.68 %IA/g
same,Animal 1 (%IA/g) g: urine,5.10 %IA/g
same,Animal 2 (%IA/Organ): bladder,0.06 %IA/Organ
same,Animal 2 (%IA/Organ): blood,5.88 %IA/Organ
same,Animal 2 (%IA/Organ): bone,4.05 %IA/Organ
same,Animal 2 (%IA/Organ): brain,0.04 %IA/Organ
same,Animal 2 (%IA/Organ): feces,0.02 %IA/Organ
same,Animal 2 (%IA/Organ): heart,0.21 %IA/Organ
same,Animal 2 (%IA/Organ): kidneys,44.76 %IA/Organ
same,Animal 2 (%IA/Organ): large intestine,0.60 %IA/Organ
same,Animal 2 (%IA/Organ): liver,6.34 %IA/Organ
same,Animal 2 (%IA/Organ): lungs,0.50 %IA/Organ
same,Animal 2 (%IA/Organ): muscle,6.72 %IA/Organ
same,Animal 2 (%IA/Organ): pancreas,0.22 %IA/Organ
same,Animal 2 (%IA/Organ): small intestine,0.66 %IA/Organ
same,Animal 2 (%IA/Organ): spleen,0.25 %IA/Organ
same,Animal 2 (%IA/Organ): stomach,0.18 %IA/Organ
same,Animal 2 (%IA/Organ): tail,2.34 %IA/Organ
same,Animal 2 (%IA/Organ): urine,0.04 %IA/Organ
same,Animal 2 (%IA/g) g: bladder,2.73 %IA/g
same,Animal 2 (%IA/g) g: blood,3.53 %IA/g
same,Animal 2 (%IA/g) g: bone,1.87 %IA/g
same,Animal 2 (%IA/g) g: brain,0.10 %IA/g
same,Animal 2 (%IA/g) g: feces,0.42 %IA/g
same,Animal 2 (%IA/g) g: heart,1.60 %IA/g
same,Animal 2 (%IA/g) g: kidneys,107 %IA/g
same,Animal 2 (%IA/g) g: large intestine,2.61 %IA/g
same,Animal 2 (%IA/g) g: liver,5.13 %IA/g
same,Animal 2 (%IA/g) g: lungs,3.11 %IA/g
same,Animal 2 (%IA/g) g: muscle,0.52 %IA/g
same,Animal 2 (%IA/g) g: pancreas,1.31 %IA/g
same,Animal 2 (%IA/g) g: small intestine,2.72 %IA/g
same,Animal 2 (%IA/g) g: spleen,3.43 %IA/g
same,Animal 2 (%IA/g) g: stomach,1.70 %IA/g
same,Animal 2 (%IA/g) g: tail,4.62 %IA/g
same,Animal 2 (%IA/g) g: urine,3.81 %IA/g
same,Animal 3 (%IA/Organ): bladder,0.03 %IA/Organ
same,Animal 3 (%IA/Organ): blood,5.49 %IA/Organ
same,Animal 3 (%IA/Organ): bone,3.89 %IA/Organ
same,Animal 3 (%IA/Organ): brain,0.05 %IA/Organ
same,Animal 3 (%IA/Organ): feces,0.09 %IA/Organ
same,Animal 3 (%IA/Organ): heart,0.20 %IA/Organ
same,Animal 3 (%IA/Organ): kidneys,46.92 %IA/Organ
same,Animal 3 (%IA/Organ): large intestine,0.43 %IA/Organ
same,Animal 3 (%IA/Organ): liver,6.61 %IA/Organ
same,Animal 3 (%IA/Organ): lungs,0.50 %IA/Organ
same,Animal 3 (%IA/Organ): muscle,6.84 %IA/Organ
same,Animal 3 (%IA/Organ): pancreas,0.25 %IA/Organ
same,Animal 3 (%IA/Organ): small intestine,0.62 %IA/Organ
same,Animal 3 (%IA/Organ): spleen,0.22 %IA/Organ
same,Animal 3 (%IA/Organ): stomach,0.18 %IA/Organ
same,Animal 3 (%IA/Organ): tail,2.23 %IA/Organ
same,Animal 3 (%IA/Organ): urine,0.63 %IA/Organ
same,Animal 3 (%IA/g) g: bladder,1.50 %IA/g
same,Animal 3 (%IA/g) g: blood,3.33 %IA/g
same,Animal 3 (%IA/g) g: bone,1.79 %IA/g
same,Animal 3 (%IA/g) g: brain,0.11 %IA/g
same,Animal 3 (%IA/g) g: feces,2.78 %IA/g
same,Animal 3 (%IA/g) g: heart,1.46 %IA/g
same,Animal 3 (%IA/g) g: kidneys,108 %IA/g
same,Animal 3 (%IA/g) g: large intestine,2.41 %IA/g
same,Animal 3 (%IA/g) g: liver,4.96 %IA/g
same,Animal 3 (%IA/g) g: lungs,3.44 %IA/g
same,Animal 3 (%IA/g) g: muscle,0.53 %IA/g
same,Animal 3 (%IA/g) g: pancreas,1.39 %IA/g
same,Animal 3 (%IA/g) g: small intestine,2.89 %IA/g
same,Animal 3 (%IA/g) g: spleen,2.94 %IA/g
same,Animal 3 (%IA/g) g: stomach,1.57 %IA/g
same,Animal 3 (%IA/g) g: tail,4.40 %IA/g
same,Animal 3 (%IA/g) g: urine,3.90 %IA/g
same,Animal 4 (%IA/Organ): bladder,0.07 %IA/Organ
same,Animal 4 (%IA/Organ): blood,4.67 %IA/Organ
same,Animal 4 (%IA/Organ): bone,3.74 %IA/Organ
same,Animal 4 (%IA/Organ): brain,0.05 %IA/Organ
same,Animal 4 (%IA/Organ): feces,0.07 %IA/Organ
same,Animal 4 (%IA/Organ): heart,0.21 %IA/Organ
same,Animal 4 (%IA/Organ): kidneys,49.72 %IA/Organ
same,Animal 4 (%IA/Organ): large intestine,0.41 %IA/Organ
same,Animal 4 (%IA/Organ): liver,6.62 %IA/Organ
same,Animal 4 (%IA/Organ): lungs,0.46 %IA/Organ
same,Animal 4 (%IA/Organ): muscle,6.43 %IA/Organ
same,Animal 4 (%IA/Organ): pancreas,0.20 %IA/Organ
same,Animal 4 (%IA/Organ): small intestine,0.54 %IA/Organ
same,Animal 4 (%IA/Organ): spleen,0.32 %IA/Organ
same,Animal 4 (%IA/Organ): stomach,0.17 %IA/Organ
same,Animal 4 (%IA/Organ): tail,1.77 %IA/Organ
same,Animal 4 (%IA/Organ): urine,0.38 %IA/Organ
same,Animal 4 (%IA/g) g: bladder,2.90 %IA/g
same,Animal 4 (%IA/g) g: blood,3.00 %IA/g
same,Animal 4 (%IA/g) g: bone,1.85 %IA/g
same,Animal 4 (%IA/g) g: brain,0.12 %IA/g
same,Animal 4 (%IA/g) g: feces,1.01 %IA/g
same,Animal 4 (%IA/g) g: heart,1.49 %IA/g
